One may read the MIC as the least concentration at which growth counts as inhibited. The term half-life denotes how long it takes for the measured level to halve.

Converted amounts (≈) assume the structure as drawn. Positions of bridges follow the written chain, without caps; N, C: chain ends. Non-standard residues stand in square brackets, D forms with d. Residues, ends and D or L forms follow the SMILES beside them. S5 = C=CCCC[C@](C)(N)C(=O)O; Nle = CCCC[C@H](N)C(=O)O; Orn = NCCC[C@H](N)C(=O)O; Dab = NCC[C@H](N)C(=O)O; Dap = NC[C@H](N)C(=O)O

This note sets out measurements from ChEMBL document CHEMBL5550144, “Lysine-homologue substitution: Impact on antimicrobial activity and proteolytic stability of cationic stapled heptapeptides” (Bioorg Med Chem, 2024).

The test system of one data set is Staphylococcus aureus. The data set is described as follows: Antimicrobial activity against Staphylococcus aureus ATCC 6538p assessed as inhibition of bacterial growth measured for 24 hrs by standard broth microdilution method. It counts as functional. For orientation: Broth dilution looks for growth in wells or tubes with falling amounts of substance.
The next data set concerns Klebsiella pneumoniae. The data set is described as follows: Antimicrobial activity against Klebsiella pneumoniae ATCC 10031 assessed as inhibition of bacterial growth measured for 24 hrs by standard broth microdilution method. It counts as functional.
Data set [1] concerns the target T1, Trypsin (Homo sapiens, UniProt P07477+P07478+P35030). The data set can be described thus: Proteolytic stability of compound assessed as trypsin (unknown origin) mediated drug degradation by measuring half life measured at 10 to 60 mins by HPLC analysis. It counts as ADME, protein assay. Particulars: time 10-60 min.
The next data set concerns Escherichia coli. The data set can be described thus: Antimicrobial activity against Escherichia coli ATCC 25922 assessed as inhibition of bacterial growth measured for 24 hrs by standard broth microdilution method. It counts as functional.
Data set [2] in a line: Hemolytic activity in human Red blood cells assessed as hemolysis rate at 24 uM incubated for 30 mins by absorbance based analysis relative to control. It counts as toxicity, cell-based, Erythrocyte. Particulars: read-out: Activity.
Data set [3] concerns the target T1, Trypsin. The data set is described as follows: Proteolytic stability of compound assessed as trypsin (unknown origin) mediated drug degradation by measuring parent compound remaining measured at 10 to 60 mins by HPLC analysis. It counts as ADME, protein assay. Particulars: time 10-60 min.
The subject of data set [4] is Staphylococcus epidermidis. The data set is described as follows: Antimicrobial activity against Staphylococcus epidermidis ATCC 12228 assessed as inhibition of bacterial growth measured for 24 hrs by standard broth microdilution method. It counts as functional.
The subject of another data set is Salmonella typhimurium. The data set can be described thus: Antimicrobial activity against Salmonella enterica subsp. enterica serovar Typhimurium ATCC 14028 assessed as inhibition of bacterial growth measured for 24 hrs by standard broth microdilution method. It counts as functional.
The test system of a further data set is Pseudomonas aeruginosa. The data set is described as follows: Antimicrobial activity against Pseudomonas aeruginosa ATCC 27853 assessed as inhibition of bacterial growth measured for 24 hrs by standard broth microdilution method. It counts as functional.
A further data set deals with Shigella dysenteriae. The data set is described as follows: Antimicrobial activity against Shigella dysenteriae ATCC 9752 assessed as inhibition of bacterial growth measured for 24 hrs by standard broth microdilution method. It counts as functional.
For data set [5], the target named is T1, Trypsin. The data set can be described thus: Proteolytic stability of compound assessed as trypsin (unknown origin) mediated drug degradation measured at 10 to 60 mins by HPLC analysis. It counts as ADME, protein assay. Particulars: time 10-60 min, read-out: Drug degradation.
Data set [6] has as its target T1, Trypsin. The data set is described as follows: Proteolytic stability of compound assessed as trypsin (unknown origin) mediated drug hydrolysis measured at 10 to 60 mins by HPLC analysis. It counts as ADME, protein assay. Particulars: time 10-60 min, read-out: Drug degradation.

For the molecule `CCCC[C@@H]1NC(=O)[C@H](CN)NC(=O)[C@H](Cc2c[nH]c3ccccc23)NC(=O)[C@@](C)(NC(=O)[C@@H](N)CN)CCC/C=C/CCC[C@@](C)(C(=O)N[C@@H](CN)C(N)=O)NC1=O` (H-[Dap][S5]W[Dap][Nle][S5][Dap]-NH2; staple (E) 2-6), the MIC in the data set on Staphylococcus aureus was 12.5 µg/mL (≈ 15.2 µM); in the data set on Klebsiella pneumoniae, 50 µg/mL (≈ 60.6 µM); in the data set on Escherichia coli it was 25 µg/mL (≈ 30.3 µM); in data set [4], 25 µg/mL (≈ 30.3 µM); in the data set with Salmonella typhimurium, 50 µg/mL (≈ 60.6 µM); in the data set on Pseudomonas aeruginosa, 50 µg/mL (≈ 60.6 µM). The MIC in the data set with Shigella dysenteriae is 25 µg/mL (≈ 30.3 µM). Moreover, the half-life on Trypsin [1] amounted to 6.38 h. Besides, the hemolysis at 0.5 h, 24 µM in data set [2] came to 0.2%. The Stability at Trypsin [3] was above 90%.

Turning to `CCCC[C@@H]1NC(=O)[C@H](CCCCN)NC(=O)[C@H](Cc2c[nH]c3ccccc23)NC(=O)[C@@](C)(NC(=O)[C@@H](N)CCCCN)CCC/C=C/CCC[C@@](C)(C(=O)N[C@@H](CCCCN)C(N)=O)NC1=O` (H-K[S5]WK[Nle][S5]K-NH2; staple (E) 2-6), the MIC was 12.5 µg/mL (≈ 13.1 µM) in the data set on Staphylococcus aureus; 50 µg/mL (≈ 52.6 µM) in the data set with Klebsiella pneumoniae; 25 µg/mL (≈ 26.3 µM) with Escherichia coli; 6.3 µg/mL (≈ 6.62 µM) in [4]; 50 µg/mL (≈ 52.6 µM) in the data set with Salmonella typhimurium; 25 µg/mL (≈ 26.3 µM) with Pseudomonas aeruginosa. In the data set on Shigella dysenteriae, the MIC came out at 12.5 µg/mL (≈ 13.1 µM). Besides, on Trypsin [1], the half-life is 1.33 h. For the same molecule, in data set [2], the hemolysis at 0.5 h, 24 µM came to 0.5%. For the same molecule, at Trypsin [5], the metabolised is above 40%.

`C[C@@]1(C(=O)N[C@@H](CCCCN)C(N)=O)CCC/C=C/CCC[C@](C)(NC(=O)[C@@H](N)CCCCN)C(=O)N[C@@H](Cc2c[nH]c3ccccc23)C(=O)N[C@@H](CCCCN)C(=O)N[C@@H](CCC(=O)O)C(=O)N1` (H-K[S5]WKE[S5]K-NH2; staple (E) 2-6): the MIC (in the data set with Staphylococcus aureus; with Klebsiella pneumoniae; in the data set on Escherichia coli; in [4]; in the data set on Salmonella typhimurium; in the data set on Pseudomonas aeruginosa) was above 100 µg/mL throughout. In addition, the MIC with Shigella dysenteriae is above 100 µg/mL. Besides, the hemolysis at 0.5 h, 24 µM in [2] is below 0.1%.

`CCCC[C@@H]1NC(=O)[C@H](CCN)NC(=O)[C@H](Cc2c[nH]c3ccccc23)NC(=O)[C@@](C)(NC(=O)[C@@H](N)CCN)CCC/C=C/CCC[C@@](C)(C(=O)N[C@@H](CCN)C(N)=O)NC1=O` (H-[Dab][S5]W[Dab][Nle][S5][Dab]-NH2; staple (E) 2-6): the MIC in the data set with Staphylococcus aureus worked out at 25 µg/mL (≈ 28.8 µM); with Klebsiella pneumoniae, 50 µg/mL (≈ 57.7 µM); with Escherichia coli, 25 µg/mL (≈ 28.8 µM); in data set [4], 12.5 µg/mL (≈ 14.4 µM); in the data set with Salmonella typhimurium it was 50 µg/mL (≈ 57.7 µM); in the data set with Pseudomonas aeruginosa it was 50 µg/mL (≈ 57.7 µM). For the same molecule, the MIC in the data set with Shigella dysenteriae amounted to 25 µg/mL (≈ 28.8 µM). Besides, on Trypsin [1], the half-life is 4.82 h. Moreover, the metabolised at Trypsin [6] stood at 11%. Besides, the hemolysis at 0.5 h, 24 µM in data set [2] came out at 0.1%.

`CCCC[C@@H]1NC(=O)[C@H](CCCN)NC(=O)[C@H](Cc2c[nH]c3ccccc23)NC(=O)[C@@](C)(NC(=O)[C@@H](N)CCCN)CCC/C=C/CCC[C@@](C)(C(=O)N[C@@H](CCCN)C(N)=O)NC1=O` (H-[Orn][S5]W[Orn][Nle][S5][Orn]-NH2; staple (E) 2-6): the MIC in the data set with Staphylococcus aureus is 12.5 µg/mL (≈ 13.7 µM); with Klebsiella pneumoniae, 37.5 µg/mL (≈ 41.2 µM); in the data set on Escherichia coli it was 25 µg/mL (≈ 27.5 µM); in data set [4], 6.3 µg/mL (≈ 6.93 µM); in the data set on Salmonella typhimurium it was 25 µg/mL (≈ 27.5 µM); in the data set with Pseudomonas aeruginosa it was 18.8 µg/mL (≈ 20.7 µM). Further, the minimum inhibitory concentration (MIC) in the data set with Shigella dysenteriae was 12.5 µg/mL (≈ 13.7 µM). The half-life at Trypsin [1] stood at 4.3 h. Also, at Trypsin [6], the metabolised was 11%. Further, the hemolysis at 0.5 h, 24 µM in data set [2] is 0.4%.
